Measured values as given in patent US5281603A, “Angiotensin II receptor blocking 2,3,6 substituted quinazolinones” (American Cyanamid Company, priority 1993, dated 1994).
Values joined by “and” are separate entries in the source; they are usually repeats but may differ in a detail not shown here. Equal values may be shown once.

Tested on: Angiotensin II vasopressor response
Assay: AII challenge: antagonism of angiotensin II vasopressor response in conscious spontaneously hypertensive rats
Type: in vivo, rat (Male Okamoto-Aoki SHR)
Details: 3 mg/kg I.V.; for % Inhibition / Average Change: SHR n=2; for Response After AII / Change / Control Before AII: individual SHR
From the text: By administering a compound of this invention to a rat, and then challenging with angiotensin II, a blockage of the vasopressor response is realized.
Conscious Male Okamoto-Aoki SHR, 16-20 weeks old, weighing approximately 330 g are purchased from Charles River Labs (Wilmington, Mass.). Conscious rats are restrained in a supine position with elastic tape. The area at the base of the tail is locally anesthetized by subcutaneous infiltration with 2% procaine. The ventral caudal artery and vein are isolated, and a cannula made of polyethylene (PE) 10-20 tubing (fused together by heat) is passed into the lower abdominal aorta and vena cava, respectively. The cannula is secured, heparinized (1,000 I.U./ml), sealed and the wound is closed. The animals are placed in plastic restraining cages in an upright position. The cannula is attached to a Statham P23Db pressure transducer, and pulsatile blood pressure is recorded to 10-15 minutes with a Gould Brush recorder. (Chan et al., (Drug Development Res., 18:75-94, 1989).
Angiotensin II (human sequence, Sigma Chem. Co., St. […] Then a test compound, vehicle or a known angiotensin II antagonist is administered i.v., i.p. or orally to each set of rats. The two doses of angiotensin II are given to each rat again at 30, 60, 90, 120, 180, 240 and 300 minutes post dosing the compound or vehicle. The vasopressor response of angiotensin II is measured for the increase in systolic blood pressure in mmHg. The percentage of antagonism or blockade of the vasopressor response of angiotensin II by a compound is calculated using the vasopressor response (increase in systolic blood pressure) of angiotensin II of each rat predosing the compound as 100%. A compound is considered active if at 30 mg/kg i.v. it antagonized at least 50% of the response.

[1] = AII 0.01 mcg/kg IV (so in the source), 60 min post dose
[2] = AII 0.01 mcg/kg IV (so in the source), 90 min post dose
[3] = AII 0.05 mcg/kg IV, 30 min post dose
[4] = AII 0.05 mcg/kg IV, 60 min post dose
[5] = AII 0.05 mcg/kg IV, 90 min post dose
[6] = AII 0.05 mcg/kg IV, 120 min post dose
[7] = AII 0.05 mcg/kg IV, 180 min post dose
[8] = AII 0.05 mcg/kg IV, 240 min post dose
[9] = AII 0.05 mcg/kg IV, 300 min post dose
[10] = AII 0.1 mcg/kg IV, 30 min post dose
[11] = AII 0.1 mcg/kg IV, 120 min post dose
[12] = AII 0.1 mcg/kg IV, 180 min post dose
[13] = AII 0.1 mcg/kg IV, 240 min post dose
[14] = AII 0.1 mcg/kg IV, 300 min post dose
[15] = AII 0.01 mcg/kg IV (so in the source), 60 min post dose, 3 mg/kg
[16] = AII 0.01 mcg/kg IV (so in the source), 90 min post dose, 3 mg/kg
[17] = AII 0.05 mcg/kg IV, 30 min post dose, 3 mg/kg
[18] = AII 0.05 mcg/kg IV, 60 min post dose, 3 mg/kg
[19] = AII 0.05 mcg/kg IV, 90 min post dose, 3 mg/kg
[20] = AII 0.05 mcg/kg IV, 120 min post dose, 3 mg/kg
[21] = AII 0.05 mcg/kg IV, 180 min post dose, 3 mg/kg
[22] = AII 0.05 mcg/kg IV, 240 min post dose, 3 mg/kg
[23] = AII 0.05 mcg/kg IV, 300 min post dose, 3 mg/kg
[24] = AII 0.1 mcg/kg IV, 30 min post dose, 3 mg/kg
[25] = AII 0.1 mcg/kg IV, 120 min post dose, 3 mg/kg
[26] = AII 0.1 mcg/kg IV, 180 min post dose, 3 mg/kg
[27] = AII 0.1 mcg/kg IV, 240 min post dose, 3 mg/kg
[28] = AII 0.1 mcg/kg IV, 300 min post dose, 3 mg/kg

## CCCCc1nc2ccc([C@@]3(C)NN[C@@H]4C(=O)N(C)C(=O)[C@@H]43)cc2c(=O)n1Cc1ccc(-c2ccccc2-c2nnn[nH]2)cc1 (relative stereo) [Example 10, (3-alpha,3aalpha,6aalpha)-3-[2-butyl-3,4-dihydro-4-oxo-3-[[2'-(1H-tetrazol-5-yl)-[1,1'-biphenyl]-4-yl]methyl]-6-quinazolinyl]-2,3,3a,6a-tetrahydro-3,5-dimethyl-pyrrolo[3,4-c]pyrazole-4,6(1H,5H)-dione]
[1]
  % Inhibition: 53%
  Average Change: 22.5 mmHg
  Response After AII: 250 mmHg
[2]
  % Inhibition: 47%
  Average Change: 25 mmHg
  Change: 25 mmHg
[3]
  % Inhibition: 66%
  Average Change: 16 mmHg
[4]
  % Inhibition: 68%
  Average Change: 15 mmHg
  Change: 15 mmHg
[5]
  % Inhibition: 63%
  Average Change: 17.5 mmHg
[6]
  % Inhibition: 47%
  Average Change: 25 mmHg
[7]
  % Inhibition: 47%
  Average Change: 25 mmHg
  Control Before AII: 210 mmHg
[8]
  % Inhibition: 47%
  Average Change: 25 mmHg
  Change: 25 mmHg
[9]
  % Inhibition: 32%
  Average Change: 32.5 mmHg
[10]
  % Inhibition: 53%
  Average Change: 22.5 mmHg
[11]
  % Inhibition: 47%
  Average Change: 25 mmHg
  Change: 25 mmHg
[12]
  % Inhibition: 37%
  Average Change: 30 mmHg
[13]
  % Inhibition: 40%
  Average Change: 28.5 mmHg
[14]
  % Inhibition: 23%
  Average Change: 36.5 mmHg
[15]
  Change: 25 mmHg and 20 mmHg
  Control Before AII: 225 mmHg and 230 mmHg
[16]
  Control Before AII: 225 mmHg and 230 mmHg
  Response After AII: 250 mmHg and 255 mmHg
[17]
  Change: 20 mmHg and 12 mmHg
  Control Before AII: 220 mmHg and 245 mmHg
  Response After AII: 240 mmHg and 257 mmHg
[18]
  Control Before AII: 220 mmHg and 225 mmHg
  Response After AII: 235 mmHg and 240 mmHg
[19]
  Change: 20 mmHg and 15 mmHg
  Control Before AII: 215 mmHg and 225 mmHg
  Response After AII: 235 mmHg and 240 mmHg
[20]
  Change: 20 mmHg and 30 mmHg
  Control Before AII: 215 mmHg and 225 mmHg
  Response After AII: 235 mmHg and 255 mmHg
[21]
  Change: 20 mmHg and 30 mmHg
  Response After AII: 230 mmHg and 240 mmHg
[22]
  Control Before AII: 210 mmHg and 230 mmHg
  Response After AII: 235 mmHg and 255 mmHg
[23]
  Change: 30 mmHg and 35 mmHg
  Control Before AII: 210 mmHg and 225 mmHg
  Response After AII: 240 mmHg and 260 mmHg
[24]
  Change: 20 mmHg and 25 mmHg
  Control Before AII: 225 mmHg and 240 mmHg
  Response After AII: 245 mmHg and 265 mmHg
[25]
  Control Before AII: 220 mmHg and 230 mmHg
  Response After AII: 245 mmHg and 255 mmHg
[26]
  Change: 40 mmHg and 20 mmHg
  Control Before AII: 210 mmHg and 235 mmHg
  Response After AII: 250 mmHg and 255 mmHg
[27]
  Change: 32 mmHg and 25 mmHg
  Control Before AII: 210 mmHg and 235 mmHg
  Response After AII: 242 mmHg and 260 mmHg
[28]
  Change: 40 mmHg and 33 mmHg
  Control Before AII: 210 mmHg and 227 mmHg
  Response After AII: 250 mmHg and 260 mmHg
